Results published in patent US5665745A, “Heterocyclic compounds and their preparation and use” (Eli Lilly and Company, priority 1995, dated 1997).
Read-outs that look alike come from different tables or passages of the source.

Assays:
[1] = target: muscarinic acetylcholine receptors; assay: inhibition of specific binding of ^3 H-Oxotremorine-M (^3 H-Oxo); set-up: species or system rat (male Wistar; settings: ^3 H-Oxotremorine 1.0 nM, rat cortex, 30 min. at 25° C.
From the text: The pharmacological properties of the compounds of the invention can be illustrated by determining their capability to inhibit the specific binding of ^3 H-Oxotremorine-M (^3 H-Oxo). Birdsdall N. J. M., Hulme E. C., and Burgen A. S. V. (1980). "The Character of Muscarinic Receptors in Different Regions of the Rat Brain" Proc. Roy. Soc. London (Series B) 207,1.
^3 H-Oxo labels muscarinic receptor in the CNS (with a preference for agonist domains of the receptors). Three different sites are labeled by ^3 H-Oxo. […] Using the present experimental conditions only the high and medium affinity sites are determined.
The inhibitory effects of compounds on ^3 H-oxo binding reflects the affinity for muscarinic acetylcholine receptors.
(§1) All preparations are performed at 0°-4° C. unless otherwise indicated. Fresh cortex (0.1-1 g) from male Wistar rats (150-250 g) is homogenized for 5-10 seconds in 10 mL 20 nM Hepes pH: 7.4, with an Ultra-Turrax homogenizer. The homogenizer is rinsed with 10 mL of buffer and the combined suspension centrifuged for 15 min. at 40,000×g. The pellet is washed three times with buffer. In each step the pellet is homogenized as before in 2×10 mL of buffer and centrifuged for 10 min. at 40,000×g.
The final pellet is homogenized in 20 mM Hepes pH: 7.4 (100 mL per g of original tissue) and used for binding assay. Aliquots of 0.5 mL is added 25 μL of test solution and 25 μL of ^3 H-Oxotremorine (1.0 nM, final concentration) mixed and incubated for 30 min. at 25° C. Non-specific binding is determined in triplicate using arecoline ([…], final concentration) as the test substance. After incubation samples are added 5 mL of ice-cold buffer and poured directly onto Whatman GF/C glass fiber filters under suction and immediately washed 2 times with 5 mL of ice-cold buffer. The amount of radioactivity on the filters are determined by conventional liquid scintillation counting. Specific binding is total binding minus non specific binding.
Test substances are dissolved in 10 mL water (if necessary heated on a steam-bath for less than 5 min.) at a concentration of 2.2 mg/mL. […] The test value will be given as IC50 (the concentration (nM) of the test substance which inhibits the specific binding of ^3 H-oxo by 50%). IC50 =(applied test substance concentration) x(Cx /Co -Cx)nM where Co is specific binding in control assays and Cx is the specific binding in the test assay. (The calculations assume normal mass-action kinetics).

[2] = target: T1, muscarinic receptors (M1 -site, pirenzepine sensitive site) (Rattus norvegicus, UniProt P08482); assay: inhibition of ^3 HPRZ (pirenzepine, [N-methyl-^3 H]) binding to rat cerebral cortex membranes; set-up: species or system rat (male Wistar
T1 construct: from tissue; host or cells: cerebral cortex membranes of male Wistar rats
T1 sequence (P08482 1-460): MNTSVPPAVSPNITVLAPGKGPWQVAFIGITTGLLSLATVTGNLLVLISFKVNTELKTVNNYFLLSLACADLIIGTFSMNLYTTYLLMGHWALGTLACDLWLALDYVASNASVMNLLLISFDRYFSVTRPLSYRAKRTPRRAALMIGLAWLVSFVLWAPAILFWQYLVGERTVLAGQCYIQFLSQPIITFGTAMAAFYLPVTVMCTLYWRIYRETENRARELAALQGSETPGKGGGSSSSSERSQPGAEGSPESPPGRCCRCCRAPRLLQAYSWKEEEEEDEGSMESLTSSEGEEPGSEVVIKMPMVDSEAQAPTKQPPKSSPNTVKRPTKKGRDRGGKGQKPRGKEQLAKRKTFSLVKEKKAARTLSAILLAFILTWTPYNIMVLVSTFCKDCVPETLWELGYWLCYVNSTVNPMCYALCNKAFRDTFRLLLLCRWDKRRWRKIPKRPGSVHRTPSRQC
Experimental: Furthermore the pharmacological properties of the compounds of the invention can also be illustrated by determining their capability to inhibit ^3 HPRZ (pirenzepine, [N-methyl-^3 H]) binding to rat cerebral cortex membranes.
Pirenzepine binds selectively to subtype of muscarinic receptors. Historically the type is named the M1 -site, whereas pirenzepine sensitive site would be more appropriate.
as §1, with “cortex ([…])” for “cortex (0.1-1 g)”, “rats (150-200” for “rats (150-250”, “5-10 s” for “5-10 seconds”, “20 mM” for “20 nM”, “with 2×10” for “with 10”, “in 3×10” for “in 2×10”
The final pellet is homogenized in 20 mM Hepes pH: 7.4 (100 mL per g of original tissue) and used for binding assay. Aliquots of 0.5 mL is added 20 μl of test solution and 25 μL of ^3 HPRZ (1.0 nM, final conc.), mixed and incubated for 60 min. at 20° C. Non-specific binding is determined in triplicate using atropine (1 ,μg/mL, final conc.) as the test substance. After incubation samples are added 5 mL of ice-cold buffer and poured directly onto Whatman GF/C glass fiber filters under suction and immediately washed 2 times with 5 mL of ice-cold buffer. The amount of radioactivity on the filters are determined by conventional liquid scintillation counting. Specific binding is total binding minus non-specific binding.
Test substances are dissolved in 10 mL water, at a concentration of 0.22 mg/mL.
The test value will be given as IC50 (the concentration (nM) of the test substance which inhibits the specific binding of ^3 HPRZ by 50%). IC50 =(applied test substance concentration) x(Cx /Co -Cx)nM where Co is specific binding in control assays and Cx is the specific binding in the test assay. (The calculations assume normal mass-action kinetics).

[3] = ^3 HPRZ 1.0 nM, rat cortex, 60 min. at 20° C., read-out: ^3 HPRZ IC50 (head from b208 on: Pir IC-50)

Structure (SMILES)	IC50 [1] [nM]	IC50 [2] [nM]	IC50 [2, 3] [nM]
c1cncc(CCCSc2nsnc2OC2CN3CCC2CC3)c1 (racemic) [Compound 155, (±)-3-(3-[3-pyridyl]propylthio)-4-(1-azabicyclo[2.2.2]octyl-3-oxy)-1,2,5-thiadiazole]	3.4	8.8	–
c1ccc(OCCOc2nsnc2O[C@@H]2CN3CCC[C@H]2C3)cc1 (relative stereo) [Compound 191, (±)-endo-3-(2-Phenoxyethoxy)-4-(1-azabicyclo[3.2.1]octyl-6-oxy)-1,2,5-thiadiazole]	1.4	–	9.5
N#Cc1ccc(CSc2nsnc2O[C@H]2CN3CCC[C@@H]2C3)cc1 (relative stereo) [Compound 49, (±)-endo-3-(4-Cyanobenzylthio)-4-(1-azabicyclo[3.2.1]octyl-6-oxy)-1,2,5-thiadiazole]	1.8	–	1.9
CCCCOc1nsnc1OC1CCCNC1 (racemic) [Compound 134, (±)-3-Butyloxy-4-(3-piperidinyloxy)-1,2,5-thiadiazole]	55	–	227
c1ccc2c(OCCOc3nsnc3OC3CN4CCC3CC4)cccc2c1 (racemic) [Compound 127, (±)-3-(2-[1-Napthyloxy]ethoxy)-4-(1-azabicyclo [2.2.2]octyl-3-oxy)-1,2,5-thiadiazole]	61	–	373
FCCCCOc1nsnc1OC1CN2CCC1CC2 (racemic) [Compound 117, (±)-3-(4-Fluorobutyloxy)-4-(1-azabicyclo[2.2.2]octyl-3-oxy)-1,2,5-thiadiazole]	32	–	238
CCCCSc1nsnc1O[C@@H]1CNC[C@H]1O (relative stereo) [Compound 146, (±)-trans-3-Butylthio-4-(4-hydroxy-pyrollidin-3-oxy)-1,2,5-thiadiazole]	775	–	> 1000
FC(F)(F)c1ccc(SCCSc2nsnc2OC2CN3CCC2CC3)s1 (racemic) [Compound 55, (±)-3-(2-(2-Thio-5-trifluoromethylthienyl)ethylthio)-4-(1-azabicyclo[2.2.2]octyl-3-oxy)-1,2,5-thiadiazole]	11	23	–
FC(F)(F)CCCOc1nsnc1O[C@@H]1CN2CCC[C@H]1C2 (relative stereo) [Compound 167, (±)-endo-3-(4,4,4-Trifluorobutoxy)-4-(1-azabicyclo[3.2.1]octyl-6-oxy)-1,2,5-thiadiazole]	2.8	–	2
CC(C)CCCOc1nsnc1OC1CN2CCC1CC2 (racemic) [Compound 11, (±)-3-(4-Methylpentyloxy)-4-(1-azabicyclo[2.2.2]octyl-3-oxy)-1,2,5-thiadiazole]	29	33	–
C#CC(C)Oc1nsnc1OC1CN2CCCC1C2 (mixture of isomers) [Compound 203, (±)-endo-3-(3-Butyn-2-oxy)-4-(1-azabicyclo[3.2.1]octyl-6-oxy)-1,2,5-thiadiazole]	3.1	–	4.3
c1ccc(CCCSc2nsnc2O[C@H]2CN3CCC[C@@H]2C3)cc1 (relative stereo) [Compound 72, (±)3-(3-Phenylpropylthio)-4-[endo-6-(1-azabicyclo[3.2.1].cent.octyloxy)]-1,2,5-thiadiazole]	1.9	–	0.55
CCCCOc1nsnc1O[C@H]1C[C@@H]2CC[C@H]1N2 (relative stereo) [Compound 133, (±)-exo-3-Butyloxy-4-(7-azabicyclo[2.2.1]heptyl-3-oxy)-1,2,5-thiadiazole]	> 1000	–	> 1000
Fc1ccc(CCCSc2nsnc2OC2CN3CCC2CC3)cc1 (racemic) [Compound 73, (±)3-[3-(4-Fluorophenyl)propylthio]-4-[-3-(1-azabicyclo[2.2.2]octyloxy)]-1,2,5-thiadiazole]	4.1	6.5	–
CCCCOc1nsnc1OC1CN2CCC1CC2 (racemic) [Compound 8, (±)-3-Butyloxy-4-(1-azabicyclo[2.2.2]octyl-3-oxy)-1,2,5-thiadiazole]	3.1	7.4	–
FC(F)(F)CCCOc1nsnc1OC1CC2CCC1NC2 (mixture of isomers) [Compound 160, (±)-exo-3-(4,4,4-Trifluorobutyloxy)-4-(2-azabicyclo[2.2.2]octyl-6-oxy)-1,2,5-thiadiazole]	14	–	6.3
CCCCS(=O)(=O)c1nsnc1OC1CN2CCC1CC2 (racemic) [Compound 102, (±)-3-Butylsulfonyl-4-(1-azabicyclo[2.2.2]octyl-3-oxy)-1,2,5-thiadiazole]	378	–	187
CCCCSc1nsnc1O[C@@H]1CN2CC[C@@H]1C2 (relative stereo) [Compound 131, (±)exo-3-Butylthio-4-(1-azabicyclo[2.2.1]heptyl-3-oxy)-1,2,5-thiadiazole]	5.6	46	–
CC(C)=CCOc1nsnc1O[C@@H]1CN2CCC[C@H]1C2 (relative stereo) [Compound 201, (±)-endo-3-(3-Methyl-2-butenyloxy)-4-(1-azabicyclo[3.2.1]octyl-6-oxy)-1,2,5-thiadiazole]	3.7	–	3.1
COCCOc1nsnc1O[C@@H]1CN2CCC[C@H]1C2 (relative stereo) [Compound 183, (±)-endo-3-(2-Methoxyethoxy)-4-(1-azabicyclo[3.2.1]octyl-6-oxy)-1,2,5-thiadiazole]	2.6	–	9.9
FC(F)(F)c1cccc(CCOc2nsnc2O[C@@H]2CN3CCC[C@H]2C3)c1 (relative stereo) [Compound 188, (±)-endo-3-[2-(3-Trifluoromethylphenyl)ethoxy]-4-(1-azabicyclo[3.2.1]octyl-6-oxy)-1,2,5-thiadiazole]	12	–	43
C1CC1COc1nsnc1OC1CN2CCC1CC2 (racemic) [Compound 106, (±)-3-(Cyclopropylmethoxy)-4-(1-azabicyclo[2.2.2]octyl-3-oxy)-1,2,5-thiadiazole]	9.5	95.4	–
Brc1ccc(OCCOc2nsnc2OC2CN3CCC2CC3)cc1 (racemic) [Compound 128, (±)-3-(2-[4-Bromophenoxy]ethoxy)-4-(1-azabicyclo[2.2.2]octyl-3-oxy)-1,2,5-thiadiazole]	6.9	–	109
